Consider 26 molecules from ChEMBL document CHEMBL3399941, “Discovery of heterocyclic sulfonamides as sphingosine 1-phosphate receptor 1 (S1P1) antagonists” (Bioorg Med Chem Lett, 2015).

What is called EC50 is the concentration giving half of the maximal effect. One may read the Cmax as the peak of the concentration-time curve. Broadly, the fraction unbound is the share of the substance not bound to proteins or other matrix. As usually defined, the Papp B→A is the apparent permeability from the basolateral to the apical side of a cell layer. As usually defined, the logD is the decadic logarithm of the distribution of all forms, ionised or not, between an organic phase and buffer at a given pH. The low end stands for a more hydrophilic compound, the high end for a more lipophilic compound. What is called solubility is the dissolved amount per volume that the medium holds. A low value points to little dissolved substance. The AUC is concentration integrated over time. What is called Papp A→B is how fast a substance crosses the layer from the apical side. By half-life is commonly meant how long it takes for the measured level to halve.

Converted amounts (≈) assume the structure as drawn.

Data set [1] deals with Sphingosine 1-phosphate receptor 1 (Homo sapiens, UniProt P21453). The data set is described as follows: Antagonist activity against S1P1R in human U2OS cells expressing beta-arrestin/green fluorescent protein assessed as effect on S1P-induced beta-arrestin GFP relocalization incubated for 30 mins by Hoechst 33342 staining based receptor translocation assay. The data set is classed as cell-based.

Data set [2] is described as follows: (§1) Intrinsic clearance in human liver microsomes. The data set is classed as ADME. Particulars: liver microsomes, read-out: CLH.
Data set [3] in a line: Cmax in rat at 3 mg/kg, po. It counts as ADME, organism-based. Set-up: dose 3 mg/kg, route oral. Particulars: in vivo.
A short description of data set [4]: Protein binding in human plasma assessed as unbound fraction. The data set is classed as ADME, cell-free.
Data set [5] in a line: Protein binding in rat plasma assessed as unbound fraction. It counts as ADME, cell-free.
Data set [6] in a line: Apparent permeability from basolateral to apical side in human Caco2 cells. The following applies: Caco-2. It counts as ADME, cell-based. Background: Passage across Caco-2 layers is used to estimate intestinal permeability.
Data set [7] is described as follows: Lipophilicity, log D of the compound. The data set is classed as physicochemical. The following applies: octanol/water.
Data set [8] is described as follows: Intrinsic clearance in rat hepatocytes assessed per 10^6 cells. Particulars: read-out: CLH. The data set is classed as ADME, cell-based, Hepatocyte.
For the next data set, the system named is Liver microsome. Described as §1. The following applies: microsomes. The data set is classed as ADME.
Data set [9] has as its system Rattus norvegicus. The data set is described as follows: Oral bioavailability in rat at 3 mg/kg. It counts as ADME, organism-based. The following applies: in vivo.
Data set [10] is described as follows: Solubility in pH 7.4 buffer. The data set is classed as physicochemical.
A short description of data set [11]: Volume of distribution at steady state in rat at 1 mg/kg, iv. It counts as ADME, organism-based. Set-up: dose 1 mg/kg, route intravenous. Particulars: in vivo, read-out: Vdss.
In data set [12] the test system is Rattus norvegicus. The data set is described as follows: AUC in rat at 3 mg/kg, po. It counts as ADME, organism-based, Plasma. On the set-up: dose 3 mg/kg, route oral. The following applies: in vivo.
Data set [13] is described as follows: Apparent permeability from apical to basolateral side in human Caco2 cells. It counts as ADME, cell-based. The following applies: Caco-2.
Data set [14] is described as follows: Half life in rat at 1 mg/kg, iv. It counts as ADME, organism-based. Set-up: dose 1 mg/kg, route intravenous. The following applies: in vivo.
Data set [15] in a line: Intrinsic clearance in human hepatocytes assessed per 10^6 cells. The data set is classed as ADME, cell-based, Hepatocyte. Particulars: read-out: CLH.

Sequence of Sphingosine 1-phosphate receptor 1 (P21453 whole entry): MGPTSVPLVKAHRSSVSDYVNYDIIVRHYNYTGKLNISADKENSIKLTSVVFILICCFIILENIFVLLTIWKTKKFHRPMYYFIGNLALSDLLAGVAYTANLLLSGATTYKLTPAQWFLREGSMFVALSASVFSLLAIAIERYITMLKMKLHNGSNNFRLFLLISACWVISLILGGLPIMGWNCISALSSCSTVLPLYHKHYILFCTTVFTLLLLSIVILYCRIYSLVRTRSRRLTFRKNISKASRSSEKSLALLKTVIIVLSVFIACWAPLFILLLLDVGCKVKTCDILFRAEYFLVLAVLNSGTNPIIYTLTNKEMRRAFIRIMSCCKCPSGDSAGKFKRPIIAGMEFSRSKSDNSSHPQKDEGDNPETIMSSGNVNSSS

Consider `CCc1nnc(C(Cc2ccccc2)NS(=O)(=O)c2ccc(Cl)cc2)n1CC` (racemic), for which the EC50 in [1] worked out at 220 nM.

As for `Cc1ncc(C(Cc2ccccc2)NS(=O)(=O)c2ccc(Cl)cc2)n1C` (racemic), in [1], the EC50 was over 100000 nM. For the same molecule, the microsomal CLint in [2] is over 100 µL/min/mg. `CCc1nnc(C(C)NS(=O)(=O)c2ccc(Cl)cc2)n1CC` (racemic): the EC50 in [1] turned out to be 410 nM. For the molecule `C=CCSc1nnc(C(Cc2ccccc2)NS(=O)(=O)c2ccc(Cl)cc2)n1C` (racemic), the EC50 in data set [1] stood at 1030 nM. For the molecule `CCc1nnc(C(Cc2ccccc2)NS(=O)(=O)c2ccc(Cl)cc2)n1C` (racemic), the EC50 in data set [1] amounted to 340 nM. Turning to `Cc1nnc(C(Cc2ccccc2)NS(=O)(=O)c2ccc(Cl)cc2)n1Cc1ccccc1` (racemic), in data set [1], the EC50 is over 100000 nM. `Cc1nnc(C(Cc2ccccc2)NS(=O)(=O)c2ccc(Cl)cc2)n1C` (racemic): the EC50 in [1] stood at 1830 nM. In the case of `CCc1nnc([C@@H](C)NS(=O)(=O)c2ccc(Cl)cc2)n1CC`, the Cmax in [3] came out at 1600 nM. Further, the fraction unbound turned out to be 0.34 in data set [4] and 0.5 in data set [5]. The apparent permeability from basolateral to apical (Papp B→A) in data set [6] was determined as 22.5 ×10⁻⁶ cm/s. Besides, in [7], the log distribution coefficient (logD) was 1.4. Besides, the 50% effective concentration (EC50) in [1] turned out to be 250 nM. For the same molecule, the hepatocyte CLint in data set [8] was 10.2 µL/min/1e6 cells. The microsomal CLint in the data set with Liver microsome amounted to 5.5 µL/min/mg. For the same molecule, in the data set on Rattus norvegicus [9], the F amounted to 11%. This molecule also showed a solubility in data set [10] of over 600 µM. In addition, the Vd in data set [11] stood at 0.7 L/kg. This molecule also displayed an AUC with Rattus norvegicus [12] of 2.7 µM·h. The Papp A→B in [13] turned out to be 11.1 ×10⁻⁶ cm/s. The molecule further gave a half-life in data set [14] of 1.4 h. With `Cc1cnc(C(Cc2ccccc2)NS(=O)(=O)c2ccc(Cl)cc2)n1C` (racemic), the EC50 in data set [1] was determined as 1610 nM. Besides, the microsomal CLint in data set [2] is over 100 µL/min/mg.

`CCc1nnc(C(Cc2ccccc2)NS(=O)(=O)c2ccc(Cl)cc2)o1` (racemic): the EC50 in data set [1] amounted to 15200 nM. The microsomal CLint in data set [2] is over 100 µL/min/mg.

For `CCCn1c(C)nnc1C(Cc1ccccc1)NS(=O)(=O)c1ccc(Cl)cc1` (racemic), the EC50 in data set [1] turned out to be 2690 nM. Turning to `CCc1onc(C(C)NS(=O)(=O)c2ccc(Cl)cc2)c1CC` (racemic), the EC50 in [1] was found to be 3030 nM. Moreover, in data set [2], the microsomal CLint was over 100 µL/min/mg. For `CCn1c(C)nnc1C(Cc1cccnc1)NS(=O)(=O)c1ccc(Cl)cc1` (racemic), in data set [1], the EC50 turned out to be 2370 nM.

As for `CCc1[nH]nc(C(C)NS(=O)(=O)c2ccc(Cl)cc2)c1CC` (racemic), the EC50 in [1] was 310 nM. For the same molecule, the microsomal CLint in data set [2] was over 100 µL/min/mg. Take `CCn1c(C)nnc1C(Cc1ccc(F)cc1)NS(=O)(=O)c1ccc(Cl)cc1` (racemic): in data set [1], the concentration giving a half-maximal response (EC50) was 490 nM.

With `CCc1nnc([C@H](C)NS(=O)(=O)c2ccc(Cl)cc2)n1CC`, the EC50 in data set [1] is over 33000 nM. For the molecule `CCn1c(C)nnc1C(C)NS(=O)(=O)c1ccc(Cl)cc1` (racemic), the hepatocyte CLint in data set [15] is under 2 µL/min/1e6 cells. Moreover, the EC50 in [1] was 670 nM. Besides, the microsomal CLint in data set [2] was under 5 µL/min/mg. The molecule further yielded a solubility in [10] of 380 µM (≈ 125 µg/mL). Turning to `CCn1c(C)nnc1C(CC1CC1)NS(=O)(=O)c1ccc(Cl)cc1` (racemic), the EC50 in data set [1] came to 7690 nM. As for `Cn1cnnc1C(Cc1ccccc1)NS(=O)(=O)c1ccc(Cl)cc1` (racemic), the EC50 in data set [1] was determined as 22100 nM.

Consider `C=CCC(NS(=O)(=O)c1ccc(Cl)cc1)c1nnc(C)n1CC` (racemic), for which the EC50 in data set [1] is 2250 nM. Still for that read-out and setting: next, `CCn1c(C)nnc1C(Cc1ccccc1)NS(=O)(=O)c1ccc(Cl)cc1` (racemic): 460 nM; `Cn1c(C(Cc2ccccc2)NS(=O)(=O)c2ccc(Cl)cc2)nnc1C(F)(F)F` (racemic): 3170 nM; `CCCCc1nnc(C(Cc2ccccc2)NS(=O)(=O)c2ccc(Cl)cc2)n1C` (racemic): 3230 nM. As for `CCCC(NS(=O)(=O)c1ccc(Cl)cc1)c1nnc(C)n1CC` (racemic), in data set [1], the EC50 was found to be 6190 nM. Take `CCc1snc(C(C)NS(=O)(=O)c2ccc(Cl)cc2)c1CC` (racemic): the EC50 in data set [1] was 720 nM. Besides, the microsomal CLint in data set [2] was over 100 µL/min/mg. As to `Cc1nnc(C(Cc2ccccc2)NS(=O)(=O)c2ccc(Cl)cc2)n1C(C)C` (racemic), the EC50 in data set [1] turned out to be 6340 nM.
